Data on nine molecules can be found in patent US20240083888A1, “SMALL MOLECULE INHIBITOR FOR CATHEPSIN C AND MEDICINAL USE THEREOF” (REISTONE BIOPHARMA COMPANY LIMITED, priority 2020, published 2024).

Like-named read-outs stand apart in the source and are kept apart here.

A short description of data set [1]: Pharmacokinetic experiment in beagle dogs. The settings on record: for Vd: read-out: Vdss. The class given is in vivo. Details: clearance: unit not given here. As to the method: Beagle dogs (male, 9 to 11 kg)
Pharmacokinetic characteristics of the compounds in beagle dogs after intravenous or oral administration were determined by standard protocols. In the experiment, the compound was formulated into a clear solution, and administered to beagle dogs by single intravenous injection or oral administration. The intravenous injection vehicle was a mixed vehicle of 5% dimethyl sulfoxide and 95% (28% aqueous hydroxypropyl beta cyclodextrin solution). The oral vehicle is a solution of 0.5% hydroxypropylmethylcellulose and 0.1% polysorbate 80 in water. Whole blood samples within 24 hours were collected, and the supernatants were separated to obtain plasma samples. The sample was centrifuged to obtain the supernatant, to which an equal volume of water was added. The resulting solution was centrifuged to obtain the supernatant, which was injected into the analysis machine. Quantitative analysis of plasma concentration was carried out by LC-MS/MS analysis method, and the pharmacokinetic parameters, such as peak concentration (Cmax), clearance (Cl), half-life (T1/2), volume of distribution (Vdss) and area under the drug-time curve (AUC), were calculated.

Data set [2] is described as follows: Pharmacokinetic experiment in BALB/c mice. It counts as in vivo. The settings on record: for AUC(0-t) / clearance / half-life / Vd / Tmax / bioavailability: male, mouse, plasma; for Vd: read-out: Vdss. On the procedure: BALB/c mice (male, 20 to 30 g, fasting)
Pharmacokinetic characteristics of the compounds in rodent after intravenous or oral administration were determined by standard protocols. In the experiment, the compound was formulated into a clear solution, and administered to mice by single intravenous injection or oral administration. The intravenous injection vehicle was a mixed vehicle of 500 dimethyl sulfoxide and 9500 (3000 aqueous sulfobutylether cyclodextrin solution). The oral vehicle is a solution of 0.50% hydroxypropylmethylcellulose and 0.10% polysorbate 80 in water. Whole blood samples within 24 hours were collected, and the supernatants were separated to obtain plasma samples. Quantitative analysis of plasma concentration was carried out by LC-MS/MS analysis method, and the pharmacokinetic parameters, such as peak concentration (Cmax), clearance (Cl), half-life (T1/2), volume of distribution (Vdss) and area under the drug-time curve (AUC), were calculated.

The next data set deals with rhCatC (Homo sapiens (Human), UniProt P53634). Description: In vitro enzyme activity experiment of rhCatC (AMC fluorescence assay). It counts as biochemical. The settings on record: rhCatC enzyme, substrate H-Gly-Arg-AMC; read-out: Biological activity IC50. As to the method:
The in vitro inhibitory effect of compounds and positive control on rhCatC enzyme activity was evaluated by AMC fluorescence assay. rhCatC can catalyze the reaction of substrate peptide H-Gly-Arg-AMC, and release AMC to generate fluorescence. […] The compound was diluted with DMSO to a 384-well echo plate at a concentration of 100× of the highest concentration at the beginning of the experiment. 0.2 μL of the diluted compound was pipetted to a black-bottomed 384-well reaction plate for later use. The negative control well was DMSO. • 2) Activation of rhCatC: RhCatC and rhCatL were added to the activation buffer to obtain a final concentration of rhCatC of 100 μg/mL and a final concentration of rhCatL of 20 μg/mL, and incubated at room temperature for 1 hour. • 3) Enzyme activity reaction: Activated rhCatC was diluted to 0.4 μg/mL with the reaction buffer. The solution was added to the black-bottom 384-well reaction plate ([…]). 10 μL of the buffer was added for the vehicle control group. The plate containing compounds in its wells was incubated at room temperature for 30 minutes.
The RLU data was read, the inhibition rate was calculated, and the IC50 value was calculated according to the fitting curve of concentration and inhibition rate.

Data set [3] relates to neutrophil elastase (NE) downstream of CatC. Description: Target binding model in C57BL/6 mice: NE protease activity in bone marrow. The class given is in vivo. Conditions: 3 mg/kg PO, 8 days, bone marrow cell lysate, female C57BL/6 mice. On the procedure:
1. Experimental protocol: In order to investigate the inhibitory effect of the compounds on the activity of neutrophil elastase (hereinafter referred to as NE) downstream of CatC in neutrophil, female C57BL/6 mice were administered according to the following table:
2. Experimental procedures: The compound or vehicle control was administered continuously for 8 days. On Day 1 to 7, the compound or vehicle control was administered twice a day with an administration interval of 6 hours. On Day 8, the test material was collected one hour after the first administration. […] The sample was washed once with Dulbecco's phosphate buffer, centrifuged at 400 g for 5 minutes and counted. […] The supernatant was stored at −80° C. until protease activity was determined. The protease activity in the cell lysates of each group was determined using the NE protease activity detection kit (Sigma-Aldrich MAK246). 7.5 μL of 3× diluted bone marrow cell lysate or 7.5 μL of double-diluted NE standard and 7.5 μL of 25× diluted substrate were added to a 384-well plate, and the NE protease activity was immediately monitored in real-time at Ex 380 nm and Em 500 nm for 30 minutes. The RFU within the linear reaction time was determined, and the NE protease activity (ng/ml) in the sample was calibrated by the standard curve.

In the next data set the target is CatC (Homo sapiens (Human), UniProt P53634). The data set can be described thus: In vitro CatC cell activity experiment in U937 cell line. It counts as cell-based. On the procedure:
The U937 cell line was resuscitated and passed for about two generations, and the cell line with good growth status was selected. The cell suspension was transferred into a centrifuge tube, and centrifuged at 800 to 1000 rpm for 3 to 5 minutes. The supernatant was discarded. An appropriate volume of culture medium was added to the centrifuge tube, which was gently pipetted to resuspend the cells evenly. The cells were counted using a Vi-Cell XR cell counter. The cell suspension was adjusted to an appropriate concentration. The cell suspension was added into a 384-well plate ([…]). The compound was formulated into a 10 mM solution with DMSO. The compound was diluted with DMSO to obtain a 1 mM solution, and a semi-logarithmi dilution was carried out by HPD300 with DMSO to obtain 10 concentrations. Gly-Phe-AFC was formulated into a 35 mM solution with DMSO and divided. […] After adding the compounds and incubating for 1 hour in an incubator, substrate-AFC was added (12.5 μL was added to the plate). The plate was incubated for 30 minutes and read. […] XLFit was used to draw the drug efficacy inhibition rate curve and calculate the IC50 value. 4-parameter model [fit=(A+((B−A)/(1+((C/x)^D))))] was used.

Where [4] appears, read: U937 cells, CatC cell activity, read-out: Biological activity IC50.

Chain of CatC (P53634 25-134): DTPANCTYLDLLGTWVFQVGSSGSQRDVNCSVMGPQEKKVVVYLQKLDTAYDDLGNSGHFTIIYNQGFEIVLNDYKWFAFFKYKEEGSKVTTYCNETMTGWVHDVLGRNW
Chain of CatC (P53634 231-394): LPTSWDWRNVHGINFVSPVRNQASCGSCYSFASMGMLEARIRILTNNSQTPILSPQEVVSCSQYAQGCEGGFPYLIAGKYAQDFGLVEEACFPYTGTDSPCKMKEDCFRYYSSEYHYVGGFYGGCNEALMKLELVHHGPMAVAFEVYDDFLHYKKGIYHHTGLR
Chain of CatC (P53634 395-463): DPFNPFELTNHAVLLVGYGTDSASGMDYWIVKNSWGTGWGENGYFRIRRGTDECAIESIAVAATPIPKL
Chain of rhCatC (P53634 25-134): as the sequence (P53634 25-134) above
Chain of rhCatC (P53634 231-394): as the sequence (P53634 231-394) above
Chain of rhCatC (P53634 395-463): as the sequence (P53634 395-463) above

In general, AUC(0-t) refers to the area under the concentration-time curve up to a stated or last time point. As usually defined, the half-life is the time in which the quantity being followed falls by half. Broadly, the Tmax is the time at which the peak concentration occurs. As for `Cn1c(=O)oc2ccc(-c3ccc(C[C@@H](C#N)NC(=O)[C@@H]4CNCCCO4)cc3)cc21` [AZD7986, reference compound], in data set [1] (male, dog, plasma, IV, 1 mg/kg), the AUC(0-t) amounted to 1410 ng·h/mL, the half-life was 13.5 h and the Vd is 9.26 L/kg. In data set [1] (male, dog, plasma, PO, 2 mg/kg), the AUC(0-t) turned out to be 3670 ng·h/mL, the Tmax is 1.67 h, the bioavailability is 104% and the half-life was 15.3 h. In data set [2] (IV, 2 mg/kg), the AUC(0-t) turned out to be 2120 ng·h/mL, the clearance worked out at 15.1 mL/min/kg, the half-life was 2.74 h and the Vd is 2.34 L/kg. Besides, in data set [2] (PO, 5 mg/kg), the AUC(0-t) is 2130 ng·h/mL, the Tmax turned out to be 1.5 h, the bioavailability came to 40.2% and the half-life is 3.18 h.

For orientation: IC50 means the point on the concentration scale where inhibition reaches its midpoint. Turning to `N#Cc1ccc2c(c1)COc1cc(C[C@@H](C#N)NC(=O)[C@@H]3CNCCCO3)c(F)cc1-2` [Compound 14, (S)—N—((S)-1-Cyano-2-(8-cyano-2-fluoro-6H-benzo[c]chromen-3-yl)ethyl)-1,4-oxazepane-2-carboxamide], the “PK properties compared with AZD7986” value in data set [1] and in data set [2] was “better PK properties than AZD7986” throughout. For the same molecule, the “decrease of clearance rate compared with AZD7986” value is reported as “about 3 times” in data set [1] (IV) and “about 1.8 times” in data set [2] (IV). Further, the “increase of intravenous exposure compared with AZD7986” value in data set [1] (IV) worked out at 3.4 times; in data set [2] (IV), 1.8 times. For the same molecule, the “increase of oral exposure compared with AZD7986” value in data set [1] (PO) is 3.0 times; in data set [2] (PO), 3.1 times. In addition, the AUC(0-t) was 4790 ng·h/mL in data set [1] (male, dog, plasma, IV, 1 mg/kg); 10900 ng·h/mL in data set [1] (male, dog, plasma, PO, 2 mg/kg); 3770 ng·h/mL in data set [2] (IV, 2 mg/kg); 6610 ng·h/mL in data set [2] (PO, 5 mg/kg). The clearance stood at 0.172 in data set [1] (male, dog, plasma, IV, 1 mg/kg) and 8.49 mL/min/kg in data set [2] (IV, 2 mg/kg). Moreover, the half-life in data set [1] (male, dog, plasma, IV, 1 mg/kg) was 10.2 h; in data set [1] (male, dog, plasma, PO, 2 mg/kg), 12.3 h; in data set [2] (IV, 2 mg/kg), 3.08 h; in data set [2] (PO, 5 mg/kg), 2.69 h. For the same molecule, the Vd in data set [1] (male, dog, plasma, IV, 1 mg/kg) was found to be 2.29 L/kg; in data set [2] (IV, 2 mg/kg), 1.75 L/kg. For the same molecule, the Tmax in data set [1] (male, dog, plasma, PO, 2 mg/kg) was found to be 3.33 h; in data set [2] (PO, 5 mg/kg), 0.5 h. In addition, the bioavailability in data set [1] (male, dog, plasma, PO, 2 mg/kg) stood at 100%; in data set [2] (PO, 5 mg/kg), 65.3%. For the same molecule, the figures for the IC50 on rhCatC and on CatC were 0.00531 µM and 0.0061 µM, respectively. Besides, the “inhibitory rate of NE protease activity compared with AZD7986” value in data set [3] was “higher inhibitory rate of NE protease activity than the reference compound AZD7986”. Also, the “oral bioavailability compared with AZD7986” value in data set [2] is “increased”.

Take `CS(=O)(=O)c1ccc2c(c1)COc1cc(C[C@@H](C#N)NC(=O)[C@@H]3CNCCCO3)c(F)cc1-2` [Compound 30, (S)—N—((S)-1-Cyano-2-(2-fluoro-8-(methylsulfonyl)-6H-benzo[c]chromen-3-yl)ethyl)-1,4-oxazepane-2-carboxamide]: the IC50 turned out to be 0.01 µM at rhCatC and 0.0096 µM on CatC.

For `N#Cc1ccc2c(c1)-c1cc(F)c(C[C@@H](C#N)NC(=O)[C@@H]3CNCCCO3)cc1OC2` [Compound 32, (S)—N—((S)-1-Cyano-2-(9-cyano-2-fluoro-6H-benzo[c]chromen-3-yl)ethyl)-1,4-oxazepane-2-carboxamide], the IC50 at rhCatC is 0.013 µM; on CatC, 0.007 µM. For the same molecule, in data set [3], the “inhibitory rate of NE protease activity compared with AZD7986” value is listed as “higher inhibitory rate of NE protease activity than the reference compound AZD7986”.

For `N#CC(Cc1cc2c(cc1F)-c1ccc(S(=O)(=O)N3CCC3)cc1CO2)NC(=O)[C@@H]1CNCCCO1` (stereo partly drawn) [Compound 35, (2S)—N-(2-(8-(Azetidin-1-ylsulfonyl)-2-fluoro-6H-benzo[c]chromen-3-yl)-1-cyanoethyl)-1,4-oxazepane-2-carboxamide], the figures for the IC50 on rhCatC and at CatC (setting [4]) were 0.015 µM and 0.0379 µM, respectively.

For the molecule `N#CC(Cc1ccc2c(c1)OCCc1cc(F)ccc1-2)NC(=O)C1(N)CCOCC1` (stereo not shown) [Compound 36, 4-Amino-N-(1-cyano-2-(9-fluoro-6,7-dihydrodibenzo[b,d]oxepin-3-yl)ethyl)tetrahydro-2H-pyran-4-carboxamide], the IC50 at rhCatC was 0.0071 µM; at CatC (setting [4]), 0.0237 µM.

In the case of `N#CC(Cc1ccc2c(c1)COCc1cc(F)ccc1-2)NC(=O)C1(N)CCOCC1` (stereo not shown) [Compound 37, 4-Amino-N-(1-cyano-2-(9-fluoro-5,7-dihydrodibenzo[c,e]oxepin-3-yl)ethyl)tetrahydro-2H-pyran-4-carboxamide], the IC50 came to 0.014 µM on rhCatC and 0.0086 µM at CatC (setting [4]).

Turning to `CN1Cc2cc(F)ccc2-c2ccc(C[C@@H](C#N)NC(=O)C3(N)CCOCC3)cc2C1=O` [Compound 40, (S)-4-Amino-N-(1-cyano-2-(9-fluoro-6-methyl-5-oxo-6,7-dihydro-5H-dibenzo[c,e]azepin-3-yl)ethyl)tetrahydro-2H-pyran-4-carboxamide], the results for the IC50 on rhCatC and at CatC (setting [4]) were 0.0037 µM and 0.0103 µM, respectively.

For `CN1Cc2cc(C#N)ccc2-c2cc(F)c(C[C@@H](C#N)NC(=O)[C@@H]3CNCCCO3)cc2C1=O` [Compound 41, (S)—N—((S)-1-Cyano-2-(9-cyano-2-fluoro-6-methyl-5-oxo-6,7-dihydro-5H-dibenzo[c,e]azepin-3-yl)ethyl)-1,4-oxazepane-2-carboxamide], the IC50 on rhCatC is 0.0305 µM; on CatC (setting [4]), 0.117 µM.
